pIC50: −log10 of the molar value.
Test system: HOP-62 multicell spheroids with HUVEC/MSC, viability
Experiment: Anticancer human tumor HOP-62 cell line growth inhibition [KRAS2];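 also: viability read after a week of compound exposure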;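 as to viability, T/C: 100% = DMSO vehicle-treated spheroids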
Settings: for pIC50: curve of first compound; for viability, T/C: stronger effect = lower value
Source text: Multicellular complex tumor spheroid response to RAS pathway inhibitors in combination with a targeted agents in patient-derived cell lines with oncogenic KRAS variants from multiple cancer types
A high-throughput screen of multi-cell type tumor spheroids was designed to identify active combinations of targeted small molecules and KRAS pathway inhibitors. Complex spheroids include a stromal component modeled by human endothelial cells (HUVEC) and fibroblasts modeled by human mesenchymal stem cells (MSCs). The concentration ranges selected for each drug and investigational agent were based upon clinically achievable concentrations if the clinical Cmax of the agent was known.
Compounds. The drugs and investigational agents: BI-3406 (NSC825286), BAY-293 (NSC824723), batoprotafib (TNO155; NSC825523), sotorasib (AMG 510; NSC818433), MRTX1257 (NSC819558), elimusertib (BAY 1895344; NSC800525), molibresib (GSK525762; NSC774829), temuterkib (LY3214996; NSC803410), venetoclax (NSC766270), alisertib (NSC759677), olaparib (NSC753686), talazoparib (NSC767125), erdafitinib (NSC781556), ipatasertib (NSC767898), cabozantinib (NSC761068), nintedanib (NSC756659), abemaciclib (NSC768073), docetaxel (NSC628503), trametinib (NSC758246), and sapanisertib (NSC764658) were obtained from the National Cancer Institute (NCI) Developmental Therapeutics Program Chemical Repository. The FDA-approved anticancer drug set is available from the Developmental Therapeutics Program. […] The stock solutions were prepared in dimethyl sulfoxide (DMSO, Sigma-Aldrich, St. Louis, MO, cat. D2650) at 800-fold the tested concentration and stored at -70 degrees C prior to their use. All drugs and investigational agents were tested over a range starting from a high concentration at or near the clinical Cmax and decreasing in half-log increments. If the clinical Cmax for an agent had not been determined, the highest concentration tested was 10 microM.
Cell Culture. All cells were maintained in an incubator at 37 degrees C and 5% CO2 with 95% humidity. The PDC lines were cultured according to standard operating procedures established by the NCI PDMR (https://pdmr.cancer.gov/sops/default.htm). Briefly, all PDCs were thawed and cultured in Matrigel-coated flasks prepared with a working solution of 1X Ham's F-12 nutrient mix, without supplementation (Invitrogen, Waltham, MA, cat. 11765054), 100 U/mL penicillin-streptomycin (Invitrogen, cat. 15140122), and 2.5% Matrigel (Corning Inc., Corning, NY, cat. 354248) for the first three passages. All PDCs were cultured in complete DMEM/F-12 media containing advanced DMEM/F-12 (Invitrogen, cat. 12634028), 4.9% defined fetal bovine serum, heat inactivated (HyClone Laboratories Inc., Logan, UT, cat. SH30070.03HI), 389 ng/mL hydrocortisone (Sigma-Aldrich, cat. H4001), 9.7 ng/mL human EGF recombinant protein (Invitrogen, cat. PHG0313), 23.4 microg/mL adenine (Sigma-Aldrich, cat. A2786), 97.3 U/mL penicillin-streptomycin (Invitrogen, cat. 15140122), 1.9 mM L-glutamine (Invitrogen, cat. 25030081), and 9.7 microM Y-27632 dihydrochloride (Tocris Bioscience, Bristol, United Kingdom, cat. 1254). The PDCs were cultured in complete DMEM/F12 media without 9.7 microM Y-27632 dihydrochloride for at least two passages prior to the screen. The established cell line HOP-62 was cultured in RPMI 1640 medium, HEPES (Invitrogen, cat. 22400105) with 10% defined fetal bovine serum (HyClone Laboratories Inc., cat. SH30070.03) and 2 mM L-glutamine (Invitrogen, cat. 25030081). The pooled donor HUVEC were cultured in endothelial cell growth medium 2 (PromoCell, Heidelberg, Germany, cat. C-22011) and the hMSC were cultured in mesenchymal stem cell growth medium 2 (PromoCell, cat. C-28009). For all experiments, HUVEC and hMSC were used at passages </=5, while the malignant cell lines were used at passages </=15. […]

[1] = second compound 0.1 µM, first compound 0.0316 µM
[2] = second compound 0.1 µM, first compound 0.1 µM
[3] = second compound 0.1 µM, first compound 0.316 µM
[4] = second compound 0.1 µM, first compound 1 µM
[5] = second compound 0.1 µM, first compound 3.16 µM
[6] = second compound 0.316 µM, first compound 0.0316 µM
[7] = second compound 0.316 µM, first compound 0.1 µM
[8] = second compound 0.316 µM, first compound 0.316 µM
[9] = second compound 0.316 µM, first compound 1 µM
[10] = second compound 0.316 µM, first compound 3.16 µM
[11] = second compound 1 µM, first compound 0.0316 µM
[12] = second compound 1 µM, first compound 0.1 µM
[13] = second compound 1 µM, first compound 0.316 µM
[14] = second compound 1 µM, first compound 1 µM
[15] = second compound 1 µM, first compound 3.16 µM
[16] = second compound 3.16 µM, first compound 0.0316 µM
[17] = second compound 3.16 µM, first compound 0.1 µM
[18] = second compound 3.16 µM, first compound 0.316 µM
[19] = second compound 3.16 µM, first compound 1 µM
[20] = second compound 3.16 µM, first compound 3.16 µM
[21] = second compound 0.0316 µM, first compound 0.01 µM
[22] = second compound 0.0316 µM, first compound 0.0316 µM
[23] = second compound 0.0316 µM, first compound 0.1 µM
[24] = second compound 0.1 µM, first compound 0.01 µM
[25] = second compound 0.316 µM, first compound 0.01 µM
[26] = second compound 1 µM, first compound 0.01 µM
[27] = second compound 3.16 µM, first compound 0.01 µM

CC1OCC2(CCN(c3cnc(Sc4ccnc(N)c4Cl)c(N)n3)CC2)C1N (stereo not given) + C=CC(=O)N1CCN(c2nc(=O)n(-c3c(C)ccnc3C(C)C)c3nc(-c4c(O)cccc4F)c(F)cc23)C(C)C1
pIC50 (second compound 0.1 µM): > 7.50
pIC50 (second compound 0.316 µM): 7.21
pIC50 (second compound 1 µM): 7.04
pIC50 (second compound 3.16 µM): 6.87
pIC50 (second compound 10 µM): > 7.50
viability, T/C [1]: 47.7%
viability, T/C [2]: 39.1%
viability, T/C [3]: 26.5%
viability, T/C [4]: 16.3%
viability, T/C [5]: 12.5%
viability, T/C (second compound 0.1 µM, first compound 10 µM): 13.3%
viability, T/C [6]: 63.7%
viability, T/C [7]: 39.8%
viability, T/C [8]: 28.4%
viability, T/C [9]: 19.2%
viability, T/C [10]: 15.6%
viability, T/C (second compound 0.316 µM, first compound 10 µM): 13.6%
viability, T/C [11]: 67.5%
viability, T/C [12]: 47%
viability, T/C [13]: 36.9%
viability, T/C [14]: 27.4%
viability, T/C [15]: 18.2%
viability, T/C (second compound 1 µM, first compound 10 µM): 21.5%
viability, T/C [16]: 61%
viability, T/C [17]: 51.7%
viability, T/C [18]: 42.5%
viability, T/C [19]: 30.1%
viability, T/C [20]: 24.1%
viability, T/C (second compound 3.16 µM, first compound 10 µM): 24.9%
viability, T/C (second compound 10 µM, first compound 0.0316 µM): 44.6%
viability, T/C (second compound 10 µM, first compound 0.1 µM): 40.7%
viability, T/C (second compound 10 µM, first compound 0.316 µM): 30.1%
viability, T/C (second compound 10 µM, first compound 1 µM): 26.2%
viability, T/C (second compound 10 µM, first compound 3.16 µM): 25.8%
viability, T/C (second compound 10 µM, first compound 10 µM): 23.2%

CC(=O)OC12COC1CC(O)C1(C)C(=O)C(O)C3=C(C)C(OC(=O)C(O)C(NC(=O)OC(C)(C)C)c4ccccc4)CC(O)(C(OC(=O)c4ccccc4)C21)C3(C)C (stereo not given) + C=CC(=O)N1CCN(c2nc(OCC3CCCN3C)nc3c2CCN(c2cccc4cccc(C)c24)C3)CC1CC#N
pIC50 (second compound 0.0316 µM): > 8.00
pIC50 (second compound 0.1 µM): > 8.00
pIC50 (second compound 0.316 µM): > 8.00
pIC50 (second compound 1 µM): > 8.00
pIC50 (second compound 3.16 µM): > 8.00
viability, T/C [21]: 31.2%
viability, T/C [22]: 26.2%
viability, T/C [23]: 26.6%
viability, T/C (second compound 0.0316 µM, first compound 0.316 µM): 28.6%
viability, T/C (second compound 0.0316 µM, first compound 1 µM): 30.2%
viability, T/C (second compound 0.0316 µM, first compound 3.16 µM): 35.1%
viability, T/C [24]: 19.4%
viability, T/C [1]: 22.7%
viability, T/C [2]: 20.7%
viability, T/C [3]: 20.1%
viability, T/C [4]: 23.2%
viability, T/C [5]: 23.2%
viability, T/C [25]: 18.7%
viability, T/C [6]: 20.1%
viability, T/C [7]: 17.5%
viability, T/C [8]: 16.9%
viability, T/C [9]: 20.2%
viability, T/C [10]: 19.9%
viability, T/C [26]: 18.7%
viability, T/C [11]: 12.1%
viability, T/C [12]: 17.1%
viability, T/C [13]: 16.2%
viability, T/C [14]: 18.2%
viability, T/C [15]: 18.9%
viability, T/C [27]: 27.7%
viability, T/C [16]: 26.9%
viability, T/C [17]: 23.2%
viability, T/C [18]: 28.5%
viability, T/C [19]: 25.5%
viability, T/C [20]: 27.6%

CN(C)C/C=C/C(=O)Nc1cc2c(Nc3ccc(F)c(Cl)c3)ncnc2cc1O[C@H]1CCOC1 + C=CC(=O)N1CCN(c2nc(OCC3CCCN3C)nc3c2CCN(c2cccc4cccc(C)c24)C3)CC1CC#N
pIC50 (second compound 0.0316 µM): < 7.00
pIC50 (second compound 0.1 µM): < 7.00
pIC50 (second compound 0.316 µM): 8.36
pIC50 (second compound 1 µM): > 9.50
pIC50 (second compound 3.16 µM): > 9.50
viability, T/C (second compound 0.0316 µM, first compound 0.000316 µM): 111%
viability, T/C (second compound 0.0316 µM, first compound 0.001 µM): 105%
viability, T/C (second compound 0.0316 µM, first compound 0.00316 µM): 94.9%
viability, T/C [21]: 86%
viability, T/C [22]: 99.3%
viability, T/C [23]: 89.6%
viability, T/C (second compound 0.1 µM, first compound 0.000316 µM): 69%
viability, T/C (second compound 0.1 µM, first compound 0.001 µM): 75.4%
viability, T/C (second compound 0.1 µM, first compound 0.00316 µM): 67.1%
viability, T/C [24]: 61.5%
viability, T/C [1]: 67.4%
viability, T/C [2]: 61.2%
viability, T/C (second compound 0.316 µM, first compound 0.000316 µM): 57.4%
viability, T/C (second compound 0.316 µM, first compound 0.001 µM): 52.6%
viability, T/C (second compound 0.316 µM, first compound 0.00316 µM): 49.4%
viability, T/C [25]: 48.8%
viability, T/C [6]: 46.8%
viability, T/C [7]: 42.1%
viability, T/C (second compound 1 µM, first compound 0.000316 µM): 42.8%
viability, T/C (second compound 1 µM, first compound 0.001 µM): 44.9%
viability, T/C (second compound 1 µM, first compound 0.00316 µM): 41%
viability, T/C [26]: 37%
viability, T/C [11]: 31.5%
viability, T/C [12]: 32.2%
viability, T/C (second compound 3.16 µM, first compound 0.000316 µM): 22.5%
viability, T/C (second compound 3.16 µM, first compound 0.001 µM): 0.2%
viability, T/C (second compound 3.16 µM, first compound 0.00316 µM): 3.5%
viability, T/C [27]: 6.01%
viability, T/C [16]: 17.6%
viability, T/C [17]: 13.5%

— PubChem BioAssay AID1963858 (Molecular Pharmacology Branch, DTP, NCI, 2024)
